PubChem BioAssay (NCI)
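Step 1: Grow cells in 96-well plates. Step 2: Expose to compound for 48 hours at 5 concentrations. Step 3: Interpolate endpoints linearly; if unreached, use highest concentration. TGI marks complete inhibition of growth.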

Experiments:
Test in all cases: NCI anticancer screen, dose series, 48 h
HL-60(TB) leukemia = system: HL-60(TB) leukemia
HS 578T breast = system: HS 578T breast
HT29 colon = system: HT29 colon
K-562 leukemia = system: K-562 leukemia
SK-MEL-2 melanoma = system: SK-MEL-2 melanoma
SK-MEL-28 melanoma = system: SK-MEL-28 melanoma
SNB-75 CNS = system: SNB-75 CNS
T-47D breast = system: T-47D breast
UACC-62 melanoma = system: UACC-62 melanoma
A549 NSCLC = system: A549 NSCLC

SMILES | TGI (HL-60(TB) leukemia) [µM] | TGI (HS 578T breast) [µM] | TGI (HT29 colon) [µM] | TGI (K-562 leukemia) [µM] | TGI (SK-MEL-2 melanoma) [µM] | TGI (SK-MEL-28 melanoma) [µM] | TGI (SNB-75 CNS) [µM] | TGI (T-47D breast) [µM] | TGI (UACC-62 melanoma) [µM] | TGI (A549 NSCLC) [µM]
CC(=O)O[C@H]1CC[C@H]2[C@@H]3CC[C@H]4Nc5c(cnn5S(C)(=O)=O)C[C@]4(C)[C@H]3CC[C@]12C | > 100 | > 100 | > 100 | > 100 | > 100 | > 100 | > 100 | > 100 | > 100 | –
COc1ccc(C2c3c(-c4ccccc4)nn(-c4ccccc4)c3Oc3ncn(N)c(=N)c32)cc1OC (stereo not drawn) | > 100 | 4.37 | 4.32 | > 100 | 3.51 | 4.29 | 3.92 | 4.48 | 3.72 | 4.81
Cc1ccc(-c2nc3n(c2/C=N\N=C(N)N)CCS3)cc1 | 78.3 | 41.4 | 27.3 | 44.2 | 25.9 | 29.4 | 23.2 | 29 | 32.1 | 29.5
CC(=N\N=C\c1ccccn1)/C(C)=N/N=C/c1ccccn1 | > 100 | > 100 | > 100 | – | > 100 | > 100 | > 100 | > 100 | – | > 100
CN1CCN(CCCCNc2cc3c4ccccc4c(NCCCCN4CCN(C)CC4)cc3c3ccccc23)CC1 | 14.9 | 5.65 | 4.19 | 6.8 | 16.5 | 29 | 7.8 | 84.2 | 6.05 | 3.21
O=C(O)C1C2CCC(C2)C1c1ccccc1 (stereo not drawn) | > 100 | > 100 | > 100 | > 100 | > 100 | > 100 | > 100 | > 100 | > 100 | > 100
CC1(C)N=C(/C(C#N)=[N+](/[O-])C(=O)c2ccccc2)C(C)(C)N1O | > 100 | > 100 | > 100 | > 100 | > 100 | > 100 | > 100 | > 100 | > 100 | > 100
O=C(O)c1ccc(/C=N\N(CCO)C2=NCCN2)cc1 | > 100 | > 100 | > 100 | > 100 | > 100 | > 100 | > 100 | > 100 | > 100 | > 100
COC(=O)Nc1nc2ccc(NS(=O)(=O)c3ccc(F)cc3)cc2[nH]1 | 8.45 | 9.66 | 37.4 | > 100 | > 100 | > 100 | 70.1 | > 100 | > 100 | > 100
O=C(O)C1(CC(CCCN2CCCCC2)c2ccccc2)CCCC1 (stereo not drawn) | > 100 | > 100 | > 100 | > 100 | > 100 | > 100 | > 100 | > 100 | > 100 | > 100
COc1cc(C(c2cc(OC)c(OC)c(OC)c2)N2C(=O)CCC2C(=O)O)cc(OC)c1OC (stereo not drawn) | > 100 | > 100 | > 100 | > 100 | > 100 | > 100 | > 100 | > 100 | > 100 | > 100
Nc1ccc(S(=O)(=O)c2ccc(N=[N+]([O-])c3ccc(S(=O)(=O)c4ccc(N)cc4)cc3)cc2)cc1 | > 100 | > 74.7 | > 100 | > 100 | > 94.2 | > 100 | 37.1 | > 100 | > 100 | > 100
O=C(Nc1ccc(Cl)cc1)c1cc(S(=O)(=O)NC2=NC(c3ccccc3)c3cc(Cl)ccc3N2)c(SSc2cc(Cl)c(C(=O)Nc3ccc(Cl)cc3)cc2S(=O)(=O)NC2=NC(c3ccccc3)c3cc(Cl)ccc3N2)cc1Cl (stereo not drawn) | > 42.6 | > 100 | > 100 | > 100 | > 100 | > 100 | > 100 | > 100 | > 100 | > 100
CCOc1ccc(-n2c(=O)n3c(Nc4ccc(Cl)cc4)nc4c(c(=O)n(C)c(=O)n4C)n3c2=O)cc1 | 51.7 | > 100 | > 100 | 84 | > 100 | 65.3 | 69.1 | > 100 | 46.3 | > 100
COc1cc(C(=O)OC2CC(C)=CC[C@@]3(C)CC[C@](O)(C(C)C)C23)ccc1O (stereo partly drawn) | > 100 | 40.9 | 29.8 | 38.3 | 33.2 | 60.2 | 33.5 | 47.6 | – | 27.7
CCC(=O)n1c(=O)n(-c2ccc([N+](=O)[O-])cc2)c(=O)n1C(=O)CC | > 100 | > 100 | > 100 | > 100 | > 100 | > 100 | > 100 | > 100 | > 100 | > 100
O=C1O[C@H](COC(=O)c2ccccc2)[C@@H](OC(=O)c2ccccc2)C=C1OC(=O)c1ccccc1 | 27.1 | > 100 | – | 57.4 | 50.8 | – | > 100 | 54.6 | 49.6 | –
CCCCCCCCCCOC1C(C(C)OCCCN(C)C)OC2OC3(CCCCC3)OC21 (stereo not drawn) | 20.7 | 35.8 | 11 | 12.6 | 30.4 | 25.5 | 20.1 | 35.7 | 26.2 | 30.8
CCOC(=O)c1[nH]n(-c2ccccc2)c(=O)c1C=NC(=S)C(N)=S | > 100 | > 100 | > 100 | > 100 | > 100 | > 100 | 91.4 | 41.8 | > 100 | > 100
CCCCCCCCC[C@@H]1C[C@@H]2CCC3C(C(=O)OCCCCNC(=O)OCc4ccccc4)=C(C)NC(=N1)N32 (stereo partly drawn) | 4.01 | 5.48 | 12.9 | 3.83 | 4.84 | 13.5 | 16.9 | 10.6 | 13.7 | 23.3
